According to patent US7196088B2, “Substituted tetrahydroisoquinolines and uses thereof” (Roche Palo Alto LLC, priority 2003, dated 2007):
pKi: −log10 of the molar value. Structures can show the parent of a compound that is named as a salt.

Experiments:
[1] = molecular target: recombinant human 5-HT6 receptor (Homo sapiens, UniProt P50406); assay: Radioligand binding studies: competition for [3H]LSD binding in membranes of HEK293 cells expressing the receptor
Sequence of recombinant human 5-HT6 receptor (P50406 whole entry): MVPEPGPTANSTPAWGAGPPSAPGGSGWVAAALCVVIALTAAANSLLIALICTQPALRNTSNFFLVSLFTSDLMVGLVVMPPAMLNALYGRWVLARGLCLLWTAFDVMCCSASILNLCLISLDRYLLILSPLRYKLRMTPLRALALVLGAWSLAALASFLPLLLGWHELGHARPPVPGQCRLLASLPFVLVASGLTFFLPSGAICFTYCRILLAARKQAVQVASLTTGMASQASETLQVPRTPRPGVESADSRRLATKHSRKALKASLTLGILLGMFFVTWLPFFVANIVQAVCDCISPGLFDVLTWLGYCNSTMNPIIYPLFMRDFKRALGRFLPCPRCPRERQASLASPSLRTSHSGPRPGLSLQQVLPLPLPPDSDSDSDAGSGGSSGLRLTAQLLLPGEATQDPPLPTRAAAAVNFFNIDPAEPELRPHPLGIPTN

| Structure (SMILES) | melting point [°C] | pKi [1] |
| --- | --- | --- |
| O=S(=O)(c1ccccc1)N1CCc2c(cccc2N2CCNCC2)C1 (as salt: trifluoroacetic acid salt) | 214 to 216 | – |
| O=S(=O)(c1cccc(Cl)c1Cl)N1CCc2c(cccc2N2CCNCC2)C1 [Compound 16, 2-(2,3-Dichloro-benzenesulfonyl)-5-pipe-razin-1-yl-1,2,3,4-tetra-hydroisoquinoline] | – | 10.37 |
